Experimental data taken from ChEMBL document CHEMBL4673352, “Discovery of AZD4573, a Potent and Selective Inhibitor of CDK9 That Enables Short Duration of Target Engagement for the Treatment of Hematological Malignancies” (J Med Chem, 2020).
≈ marks a conversion by molar mass, not a printed value.

How the values were obtained:
[1] = Solubility of compound in pH 4 0.1 M acetate buffer using crystalline form of sample; type: physicochemical
[2] = Solubility of compound in pH 7.4 PBS buffer using crystalline form of sample; type: physicochemical
[3] = Intrinsic clearance in human cryopreserved hepatocytes assessed per million cells […]; type: ADME, cell-based, Hepatocyte; conditions: read-out: CLH
[4] = Solubility of compound in phosphate buffer at pH 7.4 using dried form of sample; type: physicochemical; conditions: phosphate buffer, read-out: solubility
[5] = Half-life in mouse at 5.2 umol/kg, iv formulated as solution; type: ADME, organism-based; conditions: in vivo, dose 5.2 µmol/kg
[6] = Half-life in Han Wistar rat at […], iv formulated as solution; type: ADME, organism-based; conditions: in vivo, dose 1.3 µmol/kg
[7] = Volume of distribution at steady state in Beagle dog at 5.2 umol/kg, iv administered as 0.25 hrs infusion; type: ADME, organism-based, Canis lupus familiaris; conditions: in vivo, dose 5.2 µmol/kg, read-out: Vdss
[8] = Clearance in Han Wistar rat plasma at […], iv formulated as solution; type: ADME, organism-based; conditions: dose 1.3 µmol/kg
[9] = Clearance in mouse plasma at 5.2 umol/kg, iv formulated as solution; type: ADME, organism-based; conditions: dose 5.2 µmol/kg
[10] = Intrinsic clearance in dog cryopreserved hepatocytes assessed per million cells […]; type: ADME, cell-based, Canis lupus familiaris, Hepatocyte; conditions: read-out: CLH
[11] = Intrinsic clearance in rat cryopreserved hepatocytes assessed per million cells […]; type: ADME, cell-based, Hepatocyte; conditions: cryopreserved hepatocytes, read-out: CLH
[12] = Intrinsic clearance in human liver microsome; type: ADME, microsomes; conditions: liver microsomes, read-out: CLH
[13] = Half-life in Beagle dog at 5.2 umol/kg, iv administered as 0.25 hrs infusion; type: ADME, organism-based, Canis lupus familiaris; conditions: in vivo, dose 5.2 µmol/kg
[14] = Volume of distribution at steady state in mouse at 5.2 umol/kg, iv formulated as solution; type: ADME, organism-based; conditions: in vivo, dose 5.2 µmol/kg, read-out: Vdss
[15] = Volume of distribution at steady state in Han Wistar rat at […], iv formulated as solution; type: ADME, organism-based; conditions: in vivo, dose 1.3 µmol/kg, read-out: Vdss
[16] = Intrinsic clearance in mouse cryopreserved hepatocytes assessed per million cells […]; type: ADME, cell-based, Hepatocyte; conditions: read-out: CLH
[17] = Lipophilicity, log D of compound in buffer/octanol at pH 7.4 by shake flask method; type: physicochemical
[18] = Clearance in Beagle dog plasma at 5.2 umol/kg, iv administered as 0.25 hrs infusion; type: ADME, organism-based, Canis lupus familiaris; conditions: dose 5.2 µmol/kg

Question: For `COc1cc(F)ccc1-c1ccnc(NC(=O)[C@H]2CCC[C@@H](NC(C)=O)C2)c1`, which solubility thermodynamic [1] is on record?
Answer: Its solubility thermodynamic is 24 µM (≈ 9.25 µg/mL).

Question: What about the solubility thermodynamic [2] of the same compound?
Answer: Its solubility thermodynamic is 7.5 µM (≈ 2.89 µg/mL).

Question: And the hepatocyte CLint [3]?
Answer: Its hepatocyte CLint is 1.4 µL/min/1e6 cells.

Question: And the solubility [4]?
Answer: Its solubility is 33 µM (≈ 12.7 µg/mL).

Question: And the half-life [5]?
Answer: The half-life was 15.6 min.

Question: And the half-life [6]?
Answer: The half-life was 13.2 min.

Question: What about the Vd [7] of the same compound?
Answer: Its Vd is 0.62 L/kg.

Question: And the clearance [8]?
Answer: The clearance was 77 mL/min/kg.

Question: And the clearance [9]?
Answer: The clearance was 40 mL/min/kg.

Question: What about the hepatocyte CLint [10] of the same compound?
Answer: Its hepatocyte CLint is 5.9 µL/min/1e6 cells.

Question: And the hepatocyte CLint [11]?
Answer: The hepatocyte CLint was 58 µL/min/1e6 cells.

Question: What about the microsomal CLint [12] of the same compound?
Answer: Its microsomal CLint is 12 µL/min/mg.

Question: And the half-life [13]?
Answer: Its half-life is 60 min.

Question: What about the Vd [14] of the same compound?
Answer: Its Vd is 1.1 L/kg.

Question: What about the Vd [15] of the same compound?
Answer: Its Vd is 1.3 L/kg.

Question: And the hepatocyte CLint [16]?
Answer: Its hepatocyte CLint is 52 µL/min/1e6 cells.

Question: And the logD [17]?
Answer: The logD was 3.

Question: And the clearance [18]?
Answer: The clearance was 7.5 mL/min/kg.
